Results on 36 compounds are retold here after ChEMBL document CHEMBL5329201, “Development of 3-acetylindole derivatives that selectively target BRPF1 as new inhibitors of receptor activator of NF-κB ligand (RANKL)-Induced osteoclastogenesis” (Bioorg Med Chem, 2023).

A short description of series [1]: Inhibition of His-tagged human recombinant BRPF1B bromodomain using biotinylated H4 (1 to 21)K5/8/12/16Ac peptide as substrate incubated for 0.5 hrs by AlphaScreen assay. On the technique in general: In Alpha technology, singlet oxygen from a donor bead excites a nearby acceptor bead.
Series [2] can be described thus: Anti-osteoclastogensis activity in C57BL/6 mouse BMMC cells assessed as inhibition of RANKL/M-CSF-induced TRAP activity at 1 uM measured after 3 days by colorimetric assay (reference value: 0%). Type of series: functional. Particulars: C57BL/6, BMMC, 72 h, time 3 day.
Series [3] is described as follows: Cytotoxicity against C57BL/6 mouse BMMC cells assessed as cell viability at 10 uM measured after 48 hrs by CCK-8 assay (reference value: 100%). The series is classed as toxicity, cell-based. Particulars: read-out: Activity. (Formazan colour is commonly taken as a measure of viable cells.)
Series [4] is filed under the species Homo sapiens. In words: Inhibition of His-tagged human recombinant BRPF1B bromodomain using biotinylated H4 (1 to 21)K5/8/12/16Ac peptide as substrate at 20 uM incubated for 0.5 hrs by AlphaScreen assay relative to control.
Series [5] concerns BMMC. In words: Anti-osteoclastogenesis activity in C57BL/6 mouse BMMC cells assessed as reduction of RANKL/M-CSF-induced osteoclast activation and differentiation measured after 5 days by TRAP staining based light microscopic analysis. Type of series: functional, cell-based. Particulars: for Activity: time 5.0 day.
For series [6], the species on record is Homo sapiens. In words: Inhibition of His-tagged human recombinant BRPF1B bromodomain using biotinylated H4 (1 to 21)K5/8/12/16Ac peptide as substrate at 2 uM incubated for 0.5 hrs by AlphaScreen assay relative to control.
For series [7], the species on record is Homo sapiens. The experiment in a line: Binding affinity to BRPF1B (unknown origin) assessed as change in melting temperature at 10 uM by Differential scanning fluorimetry.
The test system of series [8] is BMMC. The experiment in a line: Anti-osteoclastogenesis activity in C57BL/6 mouse BMMC cells assessed as reduction of RANKL/M-CSF-induced bone resorption of osteoclasts by measuring decrease in bone resorption pit formation treated for 7 days after seeding cells onto bone slices by toluidine blue staining based confocal laser microscopic analysis. Particulars: dose 0.625-10 µM, time 7.0 day. The series is classed as functional, cell-based.

In series [9] the test system is BMMC. In words: Anti-osteoclastogenesis activity in C57BL/6 mouse BMMC cells assessed as reduction of RANKL/M-CSF-induced c-fos mRNA expression measured after 3 days by qRT-PCR analysis. The series is classed as functional, cell-based. Particulars: dose 2.5-10 µM, time 3.0 day. On the technique in general: Quantitative PCR measures a nucleic acid by following its amplification.

Series [10] relates to BMMC. In words: Anti-osteoclastogenesis activity in C57BL/6 mouse BMMC cells assessed as reduction of RANKL/M-CSF-induced CTSK mRNA expression at 1 uM measured after 3 days by qRT-PCR analysis. The series is classed as functional, cell-based. Particulars: time 3.0 day.
In series [11] the test system is BMMC. The experiment in a line: Anti-osteoclastogenesis activity in C57BL/6 mouse BMMC cells assessed as reduction of RANKL/M-CSF-induced osteoclast activation and differentiation by measuring F-actin ring formation with fewer and smaller nuclei measured after 5 days by F-actin staining based microscopic analysis. The series is classed as functional, cell-based. Particulars: time 5.0 day.

Series [12] has as its system BMMC. The experiment in a line: Anti-osteoclastogenesis activity in C57BL/6 mouse BMMC cells assessed as reduction of RANKL/M-CSF-induced TRAP mRNA expression at 1 uM measured after 3 days by qRT-PCR analysis. The series is classed as functional, cell-based. Particulars: time 3.0 day.
The subject of series [13] is BMMC. The experiment in a line: Anti-osteoclastogenesis activity in C57BL/6 mouse BMMC cells assessed as reduction of RANKL/M-CSF-induced NFATc1 mRNA expression at 1 uM measured after 3 days by qRT-PCR analysis. The series is classed as functional, cell-based. Particulars: time 3.0 day.
Series [14] deals with BMMC. The experiment in a line: Anti-osteoclastogenesis activity in C57BL/6 mouse BMMC cells assessed as reduction of RANKL/M-CSF-induced bone resorption of osteoclasts by measuring decrease in pit areas treated for 7 days after seeding cells onto bone slices by toluidine blue staining based confocal laser microscopic analysis. Particulars: dose 0.625-10 µM, time 7.0 day. The series is classed as functional, cell-based.

Series [15] relates to BMMC. The experiment in a line: Anti-osteoclastogenesis activity in C57BL/6 mouse BMMC cells assessed as reduction of RANKL/M-CSF-induced c-fos expression at 1 to 10 uM measured after 3 days by Western blot analysis. The series is classed as functional, cell-based. Particulars: dose 1-10 µM, time 3.0 day.
The subject of series [16] is BMMC. The experiment in a line: Anti-osteoclastogenesis activity in C57BL/6 mouse BMMC cells assessed as reduction of RANKL/M-CSF-induced osteoclast activation and differentiation by measuring decrease in F-actin ring formation measured after 5 days by F-actin staining based microscopic analysis. Particulars: time 5.0 day. The series is classed as functional, cell-based.

The source made the active and inactive calls. No cut-off for these calls is given here.

The IC50 is the concentration that gives 50% inhibition. The inhibition is the change of the read-out against control, counted positive when it falls. The term ΔTm denotes the change in melting temperature against a reference sample.

With `CC(=O)c1c(C)[nH]c2c(NC3CNC3)cc(-c3cccnc3)cc12`, in [1], the IC50 came out at 3430 nM.
As for `CC(=O)c1c(C)[nH]c2c(N(C)C)cc(-c3nccs3)cc12`, the inhibition at 1 µM in [2] stood at 44.1%. Moreover, in series [1], the IC50 worked out at 90 nM. The viability at 48 h, 10 µM in [3] was found to be 92.6%.
Regarding `COC(=O)c1cc(NC(=O)Nc2ccccc2OC)c2[nH]c(C)c(C(C)=O)c2c1`, in [4], the inhibition came out at 91.9%.
Take `CC(=O)c1c(C)[nH]c2c(NC3CCNCC3)cc(-c3cccnc3)cc12`: the inhibition at 1 µM in [2] was found to be 57.1%. Besides, the IC50 in [1] was found to be 442 nM. Moreover, the viability at 48 h, 10 µM in series [3] turned out to be 94.9%.
For the compound `COc1ccccc1S(=O)(=O)Nc1cc(-c2cccnc2)cc2c(C(C)=O)c(C)[nH]c12`, the inhibition at 1 µM in series [2] came to 74.2%. Also, the Activity entry in [5] is “Dose-Dependent Effect”. Moreover, the IC50 in series [1] was determined as 1090 nM. The viability at 48 h, 10 µM in [3] came to 92.7%.
Regarding `CC(=O)c1c(C)[nH]c2c(N(C)C)cc(-c3ccccn3)cc12`, in [2], the inhibition at 1 µM was determined as 100%. Further, the concentration for half-maximal inhibition (IC50) in series [1] stood at 540 nM. In addition, in series [3], the viability at 48 h, 10 µM was 28.9%.
On the same counts, the results for `CCOC(=O)Nc1cc(-c2nccs2)cc2c(C(C)=O)c(C)[nH]c12` are 41.3%, 294 nM and 111%.
Take `CCOC(=O)Nc1cc(C(=O)OC)cc2c(C(C)=O)c(C)[nH]c12`: the values for the inhibition in series [6] and in series [4] were 93.1% and 100%, respectively. Moreover, the ΔTm in series [7] was found to be 5.39 °C. Besides, the IC50 in series [1] is 558 nM.
Consider `CCOC(=O)Nc1cc(C(=O)NC)cc2c(C(C)=O)c(C)[nH]c12`, for which, in series [2], the inhibition at 1 µM came to 36.8%. Also, the IC50 in [1] turned out to be 908 nM. For the same compound, the viability at 48 h, 10 µM in [3] is 92.6%.
Take `CCOC(=O)Nc1cc(C(=O)Nc2ccccc2)cc2c(C(C)=O)c(C)[nH]c12`: in series [1], the IC50 turned out to be 1700 nM.
`CC(=O)c1c(C)[nH]c2c(N(C)C)cc(-c3ccncc3)cc12`: the inhibition at 1 µM in series [2] amounted to 67.1%. Further, the IC50 in [1] was determined as 70 nM. Further, in [3], the viability at 48 h, 10 µM was 110%.
The matching figures for `CC(=O)c1c(C)[nH]c2c(N)cc(-c3cccnc3)cc12`: 0%, 1120 nM and 109%.
Take `CCOC(=O)Nc1cc(C(=O)OC)cc2c(C(C)=O)c(C)n(C)c12`: the inhibition in series [6] was 17.6%; in [4], 99.8%.
On the same counts, the results for `COc1ccccc1C(=O)Nc1cc2c(cc1N1CCCC1)n(C)c(=O)n2C` are 101% and 100%.
Turning to `CCOC(=O)Nc1cc(-c2ccccn2)cc2cc(C)[nH]c12`, the IC50 in series [1] was over 10000 nM.
As for `CCOC(=O)CNc1cc(C(=O)OC)cc2c(C(C)=O)c(C)[nH]c12`, the ΔTm in series [7] worked out at 5.18 °C.
Turning to `COC(=O)c1cc(NC(=O)c2ccccc2)c2[nH]c(C)c(C(C)=O)c2c1`, the inhibition in [6] turned out to be 11.5%; in series [4], 100%.
Take `CCOC(=O)Nc1cc(-c2ccncc2)cc2c(C(C)=O)c(C)[nH]c12`: in [2], the inhibition at 1 µM is 66.5%. Moreover, in series [1], the IC50 was determined as 109 nM. In addition, the viability at 48 h, 10 µM in [3] was found to be 107%.
Take `COC(=O)c1cc(NC(=O)Nc2ccccc2)c2[nH]c(C)c(C(C)=O)c2c1`: the figures for the inhibition in series [6] and in series [4] were 17.6% and 100%, respectively.
With `CC(=O)c1c(C)[nH]c2c(N3CCCC3)cc(-c3cccnc3)cc12`, in [2], the inhibition at 1 µM was 40%. Besides, the IC50 in series [1] was 233 nM. For the same compound, in series [3], the viability at 48 h, 10 µM was 101%.
As for `CCOC(=O)Nc1cc(C(=O)NC2CCCC2)cc2c(C(C)=O)c(C)[nH]c12`, in series [1], the IC50 turned out to be 1830 nM.
Take `COC(=O)c1cc(NS(=O)(=O)c2ccccc2)c2[nH]c(C)c(C(C)=O)c2c1`: the inhibition in [6] was 18.3%; in [4], 100%.
For the compound `CCOC(=O)Nc1cc(C(=O)OC)cc2c(C(C)=O)c[nH]c12`, in [4], the inhibition was found to be 13.1%.
Take `COC(=O)c1cc(NC(=O)Nc2cccc(C(F)(F)F)c2)c2[nH]c(C)c(C(C)=O)c2c1`: the inhibition in [4] is 82.3%.
The same measure, in the same setting: as for `COC(=O)c1cc(NC(=O)c2ccccc2OC)c2[nH]c(C)c(C(C)=O)c2c1`, the figure is 28.3%.
Consider `COC(=O)c1cc(NC(=O)c2ccc(Cl)cc2)c2[nH]c(C)c(C(C)=O)c2c1`, for which the ΔTm in series [7] was found to be 1.92 °C.
Consider `CCNC(=O)Nc1cc(-c2cccnc2)cc2c(C(C)=O)c(C)[nH]c12`, for which the IC50 in series [1] is 1440 nM.
With `CCOC(=O)Nc1cc(C(=O)c2ccccc2)cc2c(C(C)=O)c(C)[nH]c12`, the inhibition at 1 µM in series [2] turned out to be 66.8%. Further, the IC50 in [1] was determined as 743 nM. Further, the viability at 48 h, 10 µM in series [3] was found to be 119%.
As to `CCNC(=O)Nc1cc(C(=O)OC)cc2c(C(C)=O)c(C)[nH]c12`, the inhibition in series [6] stood at 42.2%; in [4], 100%.
On the same counts, the results for `COC(=O)c1cc(NS(=O)(=O)c2ccccc2OC)c2[nH]c(C)c(C(C)=O)c2c1` are 60% and 100%.
On to `CC(=O)c1c(C)[nH]c2c(N(C)C)cc(-c3cccnc3)cc12`, for which the inhibition at 1 µM in series [2] is 26.2%. In series [1], the IC50 is 173 nM. Besides, the viability at 48 h, 10 µM in series [3] is 104%.
With `CCOC(=O)Nc1cc(-c2cccnc2)cc2c(C(C)=O)c(C)[nH]c12`, the Activity result in [8], in series [9], in series [5] and in series [14] was “Dose-Dependent Effect” each time. The inhibition at 1 µM in series [2] was 73.8%. Moreover, the result in series [10], in series [11], in series [12], in [13], in series [15] and in series [16] was Active. The IC50 in series [5] (C57BL/6, BMMC, 120 h) is 190 nM; in series [1], 102 nM. In series [3], the viability at 48 h, 10 µM is 113%.
`CCOC(=O)Nc1cc(C(=O)Nc2nccs2)cc2c(C(C)=O)c(C)[nH]c12`: in series [2], the inhibition at 1 µM came to 0%. Also, the IC50 in series [1] is 309 nM. The viability at 48 h, 10 µM in series [3] is 104%.
On the same counts, the results for `CCOC(=O)Nc1cc(-c2ccccn2)cc2c(C(C)=O)c(C)[nH]c12` are 38.8%, 109 nM and 110%.
On the same counts, the results for `CCOC(=O)Nc1cc(-c2ccccc2)cc2c(C(C)=O)c(C)[nH]c12` are 0%, 206 nM and 110%.
For the compound `CCCC(=O)Nc1cc(C(=O)OC)cc2c(C(C)=O)c(C)[nH]c12`, the inhibition is 38.5% in series [6] and 100% in series [4].
